Data taken from paper PMC11855478, “Bicyclic N,S-Acetals Containing Fused Cysteine-Amide System as New Heterocyclic Class Targeting Human Farnesyltransferase (FTase-h)” (International Journal of Molecular Sciences, 2025).

Tests used:
[1] = target: human farnesyltransferase (FTase) (Homo sapiens, UniProt P49354+P49356); assay: FTase inhibitory assay (fluorescence, Dansyl-GCVLS); assay type: biochemical; settings: inhibition of human FTase at 100 μM of tested compound; mean of two experiments
Protocol: With 40 new products in hand, the determination of their inhibitory activity on human farnesyl-transferase (FTase) in vitro was first undertaken. Dimethyl sulfoxide (DMSO) was used as the negative control, and Chaetomellic acid A was the positive reference in all assays. At the outset, and in order to select only significant results, products with an inhibitory power greater than 60% at an initial screening concentration of 100 µM were retained for the determination of their IC50 and, therefore, for further discussion. Moreover, given the number of products tested, they are grouped into three subfamilies on the basis of the degree of the sulphur atom oxidation (series of sulfides, series of sulfoxides, and series of sulfones), and the results obtained are grouped in Table 1, Table 2 and Table 3.
3.3. FTase Inhibitory Assay
Assays were realized in 96-well plates, prepared with a Biomek NKMC and a Biomek 3000 from Beckman Coulter, and read on a Wallac Victor fluorimeter from PerkinElmer. Per well, 20 µL of farnesyl pyrophosphate (10 μM) was added to 180 µL of a solution containing 2 µL of varied concentrations of potential inhibitors (dissolved in DMSO) and 178 μL of a solution composed of 10 μL of partially purified recombinant human FTase (15 µg mL^−1) and 1.0 µL of Dansyl-GCVLS peptide (in the following buffer: 5.6 mM DTT, 5.6 mM MgCl2, 12 μM ZnCl2 and 0.2% (w/v) octyl-β-D-glucopyranoside, 52 mM Tris/HCl, pH 7.5). Fluorescence was recorded for 15 min (0.7 s per well, 20 repeats) at 30 °C with an excitation filter at 340 nm and an emission filter of 486 nm. Each measurement was reproduced twice, in duplicate. The kinetic experiments were realized under the same conditions, either with FPP as varied substrate with a constant concentration of Dns-GCVLS of 2.5 μM or with Dns-GCVLS as varied substrate with a constant concentration of FPP of 10 μM. Non-linear regressions were performed using the Excel software.

[2] = tested on: panel of 60 human cancer cell lines; assay: NCI 60 cell panel one dose screen (whole panel); assay type: cell-based; design: Delta (One Dose Mean Graph): unit not given here; settings: 1.00E-5 Molar one dose; for Range (One Dose Mean Graph): in % (unit assumed); for Mean Growth Percent: mean over tested cell lines
Protocol: (§1) 3.4. Cell Proliferation Assay
Selected compounds were tested on a panel of 60 human cancer cell lines at the National Cancer Institute (NCI), Germantown, MD, USA. The cytotoxicity studies were conducted using a 48 h exposure protocol using the sulfo-rhodamine B assay. […]
X. NCI One Dose Mean Graph of sulfides 4a(A -J) and 4b(A-J)
The entire series of sulfides regrouping twenty synthesized FTI-candidates (4aA-J, 4bA-J) were selected by the National Cancer Institute (NCI) for evaluation of their antiproliferative activity against 60 cancer cell lines (see the followings twenty pages for full evaluation reports). […]
inhibiting 36% of the NCI-H522 cells. Such difference between IC50 on human FTase in the nanomolar range and IC50 on cancer cell growth in the micromolar range is characteristic to potent FTIs and was reported previously on different series of compounds (see for example ref erence in the references part […]
Of interest, none of the tested compounds at a high single dose (10 µM) in the full NCI 60 cell panel has shown a cytotoxic profile. […]
inhibitory potential on FTase raise good hope for further investigation of these series as agents fighting

CCRF-CEM (Leukemia) = assay: NCI one dose, CCRF-CEM; assay type: cell-based, human; settings: 1.00E-5 Molar one dose
Protocol: as §1
(§2) Selected compounds were tested on a panel of 60 human cancer cell lines at the National Cancer Institute (NCI), Germantown, MD, USA. The cytotoxicity studies were conducted using a 48 h exposure protocol using the sulfo-rhodamine B assay.

K-562 leukaemia cells = assay: NCI one dose, K-562; assay type: cell-based, human; settings: K-562, 1.00E-5 Molar one dose
Protocol: as §1, §2

SR (Leukemia) = assay: NCI one dose, SR; assay type: cell-based, human; settings: 1.00E-5 Molar one dose
Protocol: as §1, §2

[3] = tested on: A549/ATCC (Non-Small Cell Lung Cancer); assay: NCI one dose, A549/ATCC; assay type: cell-based, human; settings: 1.00E-5 Molar one dose
Protocol: as §1, §2

[4] = tested on: EKVX (Non-Small Cell Lung Cancer); assay: NCI one dose, EKVX; assay type: cell-based, human; settings: 1.00E-5 Molar one dose
Protocol: as §1, §2

[5] = tested on: HOP-92 (Non-Small Cell Lung Cancer); assay: NCI one dose, HOP-92; assay type: cell-based, human; settings: HOP-92, 1.00E-5 Molar one dose
Protocol: as §1, §2

[6] = tested on: NCI-H23 (Non-Small Cell Lung Cancer); assay: NCI one dose, NCI-H23; assay type: cell-based, human; settings: NCI-H23, 1.00E-5 Molar one dose
Protocol: as §1, §2

HCT-116 (Colon Cancer) = assay: NCI one dose, HCT-116; assay type: cell-based, human; settings: HCT-116, 1.00E-5 Molar one dose
Protocol: as §1, §2

SF-539 (CNS Cancer) = assay: NCI one dose, SF-539; assay type: cell-based, human; settings: SF-539, 1.00E-5 Molar one dose
Protocol: as §1, §2

SNB-75 (CNS Cancer) = assay: NCI one dose, SNB-75; assay type: cell-based, human; settings: SNB-75, 1.00E-5 Molar one dose
Protocol: as §1, §2

LOX IMVI (Melanoma) = assay: NCI one dose, LOX IMVI; assay type: cell-based, human; settings: 1.00E-5 Molar one dose
Protocol: as §1, §2

MDA-MB-435 (Melanoma) = assay: NCI one dose, MDA-MB-435; assay type: cell-based, human; settings: MDA-MB-435, 1.00E-5 Molar one dose
Protocol: as §1, §2

SK-MEL-5 (Melanoma) = assay: NCI one dose, SK-MEL-5; assay type: cell-based, human; settings: SK-MEL-5, 1.00E-5 Molar one dose
Protocol: as §1, §2

OVCAR-3 (Ovarian Cancer) = assay: NCI one dose, OVCAR-3; assay type: cell-based, human; settings: OVCAR-3, 1.00E-5 Molar one dose
Protocol: as §1, §2

OVCAR-4 (Ovarian Cancer) = assay: NCI one dose, OVCAR-4; assay type: cell-based, human; settings: OVCAR-4, 1.00E-5 Molar one dose
Protocol: as §1, §2

OVCAR-8 (Ovarian Cancer) = assay: NCI one dose, OVCAR-8; assay type: cell-based, human; settings: OVCAR-8, 1.00E-5 Molar one dose
Protocol: as §1, §2

[7] = tested on: NCI/ADR-RES (Ovarian Cancer); assay: NCI one dose, NCI/ADR-RES; assay type: cell-based, human; settings: 1.00E-5 Molar one dose
Protocol: as §1, §2

RXF 393 (Renal Cancer) = assay: NCI one dose, RXF 393; assay type: cell-based, human; settings: RXF 393, 1.00E-5 Molar one dose
Protocol: as §1, §2

UO-31 renal cancer cells = assay: NCI one dose, UO-31; assay type: cell-based, human; settings: UO-31, 1.00E-5 Molar one dose
Protocol: as §1, §2

MCF7 (Breast Cancer) = assay: NCI one dose, MCF7; assay type: cell-based, human; settings: MCF7, 1.00E-5 Molar one dose
Protocol: as §1, §2

Structure (SMILES)	% FTI [1]	Delta (One Dose Mean Graph) [2]	Range (One Dose Mean Graph) [2]	Mean Growth Percent [2]	Growth Percent (CCRF-CEM (Leukemia))	Growth Percent (K-562 leukaemia cells)	Growth Percent (SR (Leukemia))	Growth Percent [3]	Growth Percent [4]	Growth Percent [5]	Growth Percent [6]	Growth Percent (HCT-116 (Colon Cancer))	Growth Percent (SF-539 (CNS Cancer))	Growth Percent (SNB-75 (CNS Cancer))	Growth Percent (LOX IMVI (Melanoma))	Growth Percent (MDA-MB-435 (Melanoma))	Growth Percent (SK-MEL-5 (Melanoma))	Growth Percent (OVCAR-3 (Ovarian Cancer))	Growth Percent (OVCAR-4 (Ovarian Cancer))	Growth Percent (OVCAR-8 (Ovarian Cancer))	other results
COc1cccc(CNC(=O)[C@@H]2CS[C@H]3c4ccccc4C(=O)N23)c1 [4aE]	35%	27.47	39.82	101.56%	102.31%	85.13%	84.95%	83.51%	111.45%	99.32%	99.84%	102.32%	110.14%	100.11%	102.67%	107.01%	106.50%	104.00%	112.11%	100.28%	Growth Percent [7]: 106.48%; Growth Percent (RXF 393 (Renal Cancer)): 101.84%; Growth Percent (UO-31 renal cancer cells): 97.14%; Growth Percent (MCF7 (Breast Cancer)): 98.52%
COc1ccccc1CNC(=O)[C@@H]1CS[C@H]2c3ccccc3C(=O)N12 [4aG]	21%	31.67	50.93	101.60%	101.17%	81.36%	83.51%	78.79%	106.79%	102.49%	106.16%	105.23%	103.40%	98.49%	99.95%	110.28%	103.84%	109.74%	106.91%	96.60%	Growth Percent [7]: 105.58%; Growth Percent (RXF 393 (Renal Cancer)): 114.62%; Growth Percent (UO-31 renal cancer cells): 94.39%; Growth Percent (MCF7 (Breast Cancer)): 102.38%
COc1ccc(CNC(=O)[C@@H]2CS[C@H]3c4ccccc4C(=O)N23)cc1OC [4aI]	62%	34.91	52.35	98.56%	94.08%	84.27%	74.16%	74.91%	114.59%	93.36%	92.75%	98.84%	102.96%	95.63%	99.42%	107.42%	102.31%	116.00%	111.31%	88.68%	Growth Percent [7]: 99.35%; Growth Percent (RXF 393 (Renal Cancer)): 110.33%; Growth Percent (UO-31 renal cancer cells): 94.41%; Growth Percent (MCF7 (Breast Cancer)): 99.04%
C[C@@]12SC[C@@H](C(=O)NCc3ccccc3)N1C(=O)c1ccccc12 [4bA]	49%	22.99	45.00	97.89%	95.36%	91.39%	78.43%	78.86%	104.65%	83.94%	98.21%	97.31%	95.44%	88.09%	101.57%	101.35%	102.19%	119.90%	102.82%	90.77%	Growth Percent [7]: 98.79%; Growth Percent (RXF 393 (Renal Cancer)): 108.00%; Growth Percent (UO-31 renal cancer cells): 99.51%; Growth Percent (MCF7 (Breast Cancer)): 96.64%
C[C@@]12SC[C@@H](C(=O)NCc3ccccc3Br)N1C(=O)c1ccccc12 [4bB]	39%	17.49	36.16	93.03%	88.50%	80.28%	80.60%	77.15%	106.14%	88.23%	91.89%	104.70%	90.78%	92.47%	97.04%	96.92%	90.98%	111.49%	80.04%	92.33%	Growth Percent [7]: 94.45%; Growth Percent (RXF 393 (Renal Cancer)): 96.88%; Growth Percent (UO-31 renal cancer cells): 86.71%; Growth Percent (MCF7 (Breast Cancer)): 87.26%
C[C@@]12SC[C@@H](C(=O)NCc3ccccc3C(F)(F)F)N1C(=O)c1ccccc12 [4bC]	58%	25.73	45.90	95.29%	88.01%	87.85%	72.94%	69.56%	104.01%	87.86%	99.44%	89.85%	100.26%	96.49%	102.39%	98.98%	100.19%	115.46%	93.35%	92.54%	Growth Percent [7]: 101.64%; Growth Percent (RXF 393 (Renal Cancer)): 101.10%; Growth Percent (UO-31 renal cancer cells): 91.39%; Growth Percent (MCF7 (Breast Cancer)): 90.83%
